From the NIST ThermoML archive (doi:10.1016/j.tca.2019.03.026)
± gives the expanded uncertainty stated by the source.

Experiments:
[1] = for Normal melting temperature: DTA
[2] = Molar enthalpy of transition or fusion; conditions: DSC

Normal melting temperature ([1]; Crystal): 59.00 ± 0.4 °C
Glass transition temperature ([1]; Glass, DSC): -32.00 ± 1 °C
Normal melting temperature ([1]; Metastable crystal): 58.00 ± 0.4 °C
Molar enthalpy of transition or fusion ([2]; Crystal): 6.76 ± 0.454 kcal/mol
Molar enthalpy of transition or fusion ([2]; Metastable crystal): 6.19 ± 0.502 kcal/mol
SMILES: Cc1ccc(C)c(OCCCC(C)(C)C(=O)O)c1 [gemfibrozil]
